# Laboratory results as given in patent US6576620B2, “Method of identifying partial adenosine A1 receptor agonists” (CV Therapeutics, Inc., priority 1999, dated 2003).
# What was measured:
# Adenosine A1 receptor [1] = molecular target: T1, Adenosine A1 receptor (Cavia porcellus, UniProt P47745); test: Affinity binding (Ki) of Tables 4 and 5; conditions: Table 5; read-out: Ki
# T1 construct: from tissue; host or cells: guinea pig forebrain membranes
# T1 sequence (P47745 1-326): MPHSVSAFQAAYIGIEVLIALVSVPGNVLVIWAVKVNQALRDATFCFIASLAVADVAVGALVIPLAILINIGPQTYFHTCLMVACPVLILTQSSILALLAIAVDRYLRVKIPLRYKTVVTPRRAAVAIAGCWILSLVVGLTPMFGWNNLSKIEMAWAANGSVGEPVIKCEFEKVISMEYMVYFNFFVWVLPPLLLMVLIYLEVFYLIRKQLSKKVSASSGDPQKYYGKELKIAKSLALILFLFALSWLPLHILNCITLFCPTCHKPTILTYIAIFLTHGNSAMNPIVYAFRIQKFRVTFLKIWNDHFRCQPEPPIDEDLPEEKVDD
# Experimental: The binding affinity of a compound is evaluated in a competitive binding assay.
# [2] = test system: guinea pig isolated heart; test: A-V nodal conduction time / S-H interval, isolated perfused heart; conditions: 50 nM CPX in continued presence of 10 μM Compound 6 of Example 2 (58±2 msec before CPX)
# Experimental: This method evaluates the potencies of compounds to cause coronary vasodilation (A2A AdoR response) and to prolong A-V nodal conduction time (A1 AdoR response).
# Rats and guinea pigs, of either sex weighing from 230 to 260 grams and 300 to 350 grams, respectively, were used in this study. Animals were anesthetized by peritoneal injection of a cocktail containing ketamine and xylazine (ketamine 100 mg, xylazine 20 mg/ml). The chest was opened and the heart quickly removed. The heart was briefly rinse in ice-cold Krebs-Henseleit solution (see below), and the aorta cannulated. The heart was then perfused at a flow rate of 10 ml/min with modified Krebs-Henseleit (K-H) solution containing NaCl 117.9, KCl 4.5, CaCl2 2.5, MgSO4 1.18, KH2PO4 1.18, pyruvate 2.0 mmol. The K-H solution (pH 7.4) was gassed continuously with 95% O2 and 5% CO2 and warmed to 35±0.50° C. The heart was electrically paced at a fixed cycle length of […] (250 beats/min) using a bipolar electrode place on the left atrium. The electrical stimuli were generated by a Grass stimulator (Model S48, W. Warwick, R.I.) and delivered through a Stimuli Isolation Unit (Model SIU5, Astro-Med, Inc., NY) as square-wave pulses of 3-msec in duration and amplitude of at least twice the threshold intensity.
# A1 adenosine receptor-mediated depression of A-V nodal conduction time (negative dromotropic effect) was measured. Atrial and ventricular surface electrograms in rats and His bundle electrogram in guinea pigs, were recorded during constant atrial pacing.
# The effects of compounds on coronary conductance (A2A effect) and atrioventricular conduction time or stimulus-to-His-bundle (S-H) interval (A1 effect) was then determined. Hearts were instrumented for continuous recording of coronary perfusion pressure (A2A response) and atrioventricular (A-V) conduction time or S-H interval (A1 response). In each experiment, concentration-response relationship of compounds to increase coronary conductance and to prolong A-V conduction time or S-H interval was determined. After control measurements of CPP and A-V conduction time or S-H interval were made, progressive higher concentrations of the compound studied was administered until maximal coronary vasodilation and A-V nodal conduction time or S-H interval prolongation were achieved.
# Guinea pigs (Hartley) of either sex weighing 300-350 g were anaesthetized with methoxyflurane and killed by decapitation. The chest was cut open and the heart was removed quickly and rinsed in ice-cold modified Krebs-Henseleit (K-H) solution. The contents of the modified K-H solution were (in mM): NaCl 117.9, KCl 4.8, CaCl2 2.5, MgSO2 1.18, KH2PO4 1.2, Na2 EDTA 0.5, ascorbic acid 0.14, dextrose 5.5, pyruvic acid (sodium salt) 2.0, and NaHCO3 25. The K-H solution was continuously gassed with 95% oxygen and 5% CO2, and the pH was adjusted to a value of 7.4. To perfuse the heart by the Langendorff method, the transected aorta was slid onto a glass cannula and secured by a ligature. Retrograde perfusion of the aorta was initiated immediately at a constant flow of 10 ml min-′ with modified K-H solution warmed to 36.0±0.5° C. A side port in the cannula was used to connect the perfusion line to a Gould pressure transducer for measurement of coronary perfusion pressure. Coronary perfusion pressure was continuously recorded on a strip chart (Gould RS3400, Cleveland, Ohio) throughout each experiment. Coronary conductance (in ml min^−1 mmHg^−1) was calculated as the ratio of coronary flow (10 ml min^−1) to perfusion pressure (mm Hg). To facilitate the exit of fluid from the left ventricle, the leaflets of the mitral valve were trimmed with fine spring-handled scissors. When appropriate, hearts were paced at a constant rate using external electrodes. […]
# Adenosine A1 receptor [3] = test: A1-agonist stimulated [35S]GTPγS binding to G proteins; assay type: biochemical; conditions: normalized to the full agonist CPA
# Experimental: At the end of the incubation, each suspension was filtered and the retained radioactivity determined as described above.
# [4] = Table 1, compounds of Example 2
# [5] = Table 3, compounds of Example 4
Molecule,GTPγS (Adenosine A1 receptor [3]; [4]) [%],other results
CCCCNC(=O)OCC1OC(n2cnc3c(N[C@@H]4CCOC4)ncnc32)C(O)C1O (some centres unmarked) [compound 27],–,Ki (Adenosine A1 receptor [1]): 9.63 µM
"CCCn1c(=O)c2[nH]c(C3CCCC3)nc2n(CCC)c1=O [CPX, 8-cyclopentyl-1,3-dipropylxanthine, reference compound]",–,S-H interval [2]: 50 ± 2 ms
"CC(C)NC(=S)OC[C@H]1O[C@@H](n2cnc3c(N[C@@H]4CCOC4)ncnc32)[C@H](O)[C@@H]1O [Compound 47 of Example 2, 2-{6-[((3R)oxolan-3-yl)amino]purin-9-yl}(4S,2R,3R,5R)-5-({[(methylethyl)amino]thioxomethoxy}methyl)oxolane-3,4-diol]",–,Ki (Adenosine A1 receptor [1]): 1.37 µM
"2-{6-[((3R)oxolan-3-yl)amino]purin-9-yl}(4S,2R,3R,5R)-5-{[cyclopentyloxythioxomethyl)amino]methyl}oxolane-3,4-diol [Compound 72 of Example 2]",93,–
"O[C@@H]1[C@H](O)[C@@H](COC(=S)N[C@@H]2CCC[C@H]2O)O[C@H]1n1cnc2c(N[C@@H]3CCOC3)ncnc21 [Compound 63 of Example 2, 2-{6-[((3R)oxolan-3-yl)amino]purin-9-yl}(4S,2R,3R,5R)-5-({[((1R,2R)-2-hydroxycyclopentyl)amino]thioxomethoxy}methyl)oxolane-3,4-diol]",100,–
"N-[(5-{6-[((3R)oxolan-3-yl)amino]purin-9-yl}(3S,2R,4R,5R)-3,4-dihydroxyoxolan-2-yl)methy]cyclopentyloxycarboxamide [Compound 70 of Example 2]",76,–
"CCCCNC(=S)OC[C@H]1O[C@@H](n2cnc3c(N[C@@H]4CCOC4)ncnc32)[C@H](O)[C@@H]1O [Compound 48 of Example 2, 2-{6-[((3R)oxolan-3-yl)amino]purin-9-yl}(4S,2R,3R,5R)-5-{[(butylamino)thioxomethoxy]methyl}oxolane-3,4-diol]",70,–
"O[C@@H]1[C@H](O)[C@@H](COC(=S)NC2CCC2)O[C@H]1n1cnc2c(NC3CCOC3)ncnc21 (stereo partly drawn) [Compound 58 of Example 2, 2-{6-[((3)oxolan-3-yl)amino]purin-9-yl}(4S,2R,3R,5R)-5{[(cyclobutylamino)thioxomethoxy]methyl}oxolane-3,4-diol]",79,–
"CCOC(=O)CCNC(=O)OC[C@H]1O[C@@H](n2cnc3c(N[C@@H]4CCOC4)ncnc32)[C@H](O)[C@@H]1O [Compound 42 of Example 2, Ethyl 3-{[(5-{6-[((3R)oxolan-3-yl)amino]purin-9-yl}(3S, 2R,4R,5R)-3,4-dihydroxyoxolane-2-yl)methoxy}carbonylamino}propanoate]",47,–
"O[C@@H]1[C@H](O)[C@@H](COC(=S)N2CCCC2)O[C@H]1n1cnc2c(N[C@@H]3CCOC3)ncnc21 [Compound 52 of Example 2, 2-{6-[((3R)oxolan-3-yl)amino]purin-9-yl}(4S,2R,3R,5R)-5-[(pyrrolidinylthioxomethoxy)methyl]oxolane-3,4-diol]",77,–
COC(=S)NC[C@H]1O[C@@H](n2cnc3c(N[C@@H]4CCOC4)ncnc32)[C@H](O)[C@@H]1O [Compound 71 of Example 2],98,–
"C=CCNC(=O)OC[C@H]1O[C@@H](n2cnc3c(N[C@@H]4CCOC4)ncnc32)[C@H](O)[C@@H]1O [Compound 41 of Example 2, [(5-{6-[((3R)oxolan-3-yl)amino]purin-9-yl}(3S,2R,4R,5R)-3,4-dihydroxyoxolan-2-yl)methoxy]-N-prop-2-enylcarboxamide]",48,–
O=C(NC1CCCC1C(=O)O)OC[C@H]1O[C@@H](n2cnc3c(N[C@@H]4CCOC4)ncnc32)[C@H](O)[C@@H]1O (some centres unmarked) [Compound 65 of Example 2],81,–
"O=C(O)CNC(=O)OC[C@H]1O[C@@H](n2cnc3c(N[C@@H]4CCOC4)ncnc32)[C@H](O)[C@@H]1O [Compound 68 of Example 2, 2-{[(5-{6-[((3R)oxolan-3-yl)amino]purin-9-yl}(3S,2R,4R,5R)-3,4 dihydroxyoxolan-2-yl)methoxy]carbonylamino}acetic acid]",76,–
"O[C@@H]1[C@H](O)[C@@H](CSc2ccc(C(F)(F)F)cc2)O[C@H]1n1cnc2c(N[C@@H]3CCOC3)ncnc21 [Compound 16 of Example 4, 2-{6-[((3R)oxolan-3-yl)amino]purin-9-yl}(4S,5S,2R,3R)-5-[(4-(trifluoromethyl)phenylthio)methyl]oxolane-3,4-diol]",–,GTPγS (Adenosine A1 receptor [3]; [5]): 31%
O=C(N[C@H]1CCC[C@@H]1O)OC[C@H]1O[C@@H](n2cnc3c(N[C@@H]4CCOC4)ncnc32)[C@H](O)[C@@H]1O [Compound 61 of Example 2],59,–
"Cc1ccc(SC[C@H]2O[C@@H](n3cnc4c(N[C@@H]5CCOC5)ncnc43)[C@H](O)[C@@H]2O)cc1 [Compound 15 of Example 4, 2-{6-[((3R)oxolan-3-yl)amino]purin-9-yl}(4S,5S,2R,3R)-5-[(4-methylphenylthio)methyl]oxolane-3,4-diol]",–,GTPγS (Adenosine A1 receptor [3]; [5]): 48%
"C=CCNC(=S)OC[C@H]1O[C@@H](n2cnc3c(N[C@@H]4CCOC4)ncnc32)[C@H](O)[C@@H]1O [Compound 60 of Example 2, 2-{6-[((3R)oxolan-3-yl)amino]purin-9-yl}(4S,2R,3R,5R)-5-{[(prop-2-enylamino)thioxomethoxy]methyl}oxolane-3,4-diol]",77,–
CCOC(=O)[C@H]1C2CCC(C2)[C@H]1NC(=O)OC[C@H]1O[C@@H](n2cnc3c(N[C@@H]4CCOC4)ncnc32)[C@H](O)[C@@H]1O (some centres unmarked) [Compound 36 of Example 2],41,–
"O[C@@H]1[C@H](O)[C@@H](CNC(=S)NC2CCCC2)O[C@H]1n1cnc2c(N[C@@H]3CCOC3)ncnc21 [Compound 78 of Example 2, 2-{6-[((3R)oxolan-3-yl)amino]purin-9-yl}(4S,2R,3R,5R)-5-({[(cyclopentylamino)thioxomethyl]amino}methyl)oxolane-3,4-diol]",95,–
"O=C(NC1CCC1)OC[C@H]1O[C@@H](n2cnc3c(N[C@@H]4CCOC4)ncnc32)[C@H](O)[C@@H]1O [Compound 39 of Example 2, [(5-{6-[((3R)oxolan-3-yl)amino}purin-9-yl}(3S,2R,4R,5R)-3,4-dihydroxyoxolan-2-yl)methoxy]-N-cyclobutylcarboxamide]",67,–
"O[C@@H]1[C@H](O)[C@@H](COC(=S)NC2CC2)O[C@H]1n1cnc2c(N[C@@H]3CCOC3)ncnc21 [Compound 59 of Example 2, 2-{6-[((3R)oxolan-3-yl)amino]purin-9-yl}(4S,2R,3R,5R)-5-{[(cyclopropylamino)thioxomethoxy]methyl}oxolane-3,4-diol]",82,–
"CNC(=S)NC[C@H]1O[C@@H](n2cnc3c(N[C@@H]4CCOC4)ncnc32)[C@H](O)[C@@H]1O [Compound 77 of Example 2, 2-{6-[((3R)oxolan-3-yl)amino]purin-9-yl}(4S,2R,3R,5R)-5-({[(methylamino)thioxomethyl]amino}methyl)oxolane-3,4-diol]",101,–
